Source: publication PMC5331433, “Ustiloxin G, a New Cyclopeptide Mycotoxin from Rice False Smut Balls” (Toxins, 2017)

Key:
[1] = test system: rice (Oryza sativa) seeds, radicle; assay: Inhibition of radicle elongation of rice seeds; settings: 48 h, 25 °C, dark, mean of triplicate ± SD
Protocol: (§1) Phytotoxicity of the compounds was evaluated by their inhibitory activities on the radicle and germ elongation of rice (Oryza sativa) seeds. Two varieties (Lijiang and Zhonghua 11) of the seeds, which were obtained from Prof. Zejian Guo (Department of Plant Pathology and collected in 2015, China Agricultural University) were used.
(§2) The bioassay was performed using the method described previously with some modifications. Briefly, five 3-day germinated rice seeds of each rice variety were sown onto each well of a 24-well plate, containing 200 μL of working solution. For preparing working solution, 1 mg of each purified compound was dissolved in 1 mL of ultrapure water to obtain the stock solution (1 mg/mL), which was further diluted to a series of concentrations (200, 100, 50, 20, and 10 μg/mL) with ultrapure water. The ultrapure water was used as the negative control, and glyphosate (N-(phosphonomethyl)glycine) at the same concentrations as the positive control. Plates were incubated in a moist chamber at 25 °C in the dark. The length of each radicle or germ was measured after treatment for 48 h. The inhibition of radicle or germ elongation was calculated as follows: Inhibition (%) = [(Lc − Lt)/Lc] × 100, where Lc is the radicle or germ length of the control group, and Lt is the length of the treated group.
(§3) All experiments were performed with three replicates, and the results were represented by their mean values and the standard deviations (SD). The data were carried out using analysis of variance (one-way ANOVA) to detect significant differences by PROC ANOVA of SAS version 8.2.

[2] = test system: rice (Oryza sativa) seeds, germ; assay: Inhibition of germ elongation of rice seeds; settings: 48 h, 25 °C, dark, mean of triplicate ± SD
Protocol: as §1, §2, §3

[3] = test system: rice seedlings; assay: Abnormal swelling of roots and germs of rice seedlings; parameters: species or system Oryza sativa; settings: observation in words; Figure 3B shows 200 µg/mL of ustiloxin G, variety Lijiang
Protocol: as §2

[4] = test system: HepG2; assay: Cytotoxicity, MTT assay, HepG2; format: cell-based, human; settings: liver hepatocellular carcinoma cells, 24 h treatment, absorbance 570 nm, three replicates
Protocol: (§4) Cytotoxicity of the compounds were tested against human carcinoma cells using the microculture methyl-thiazolyl-tetrazolium (MTT) assay as described previously. Briefly, the cell lines were maintained in a humidified atmosphere containing 5% CO2 at 37 °C. For preparing working solution, 1 μmol of each purified ustiloxin was dissolved in 10 mL of ultrapure water to obtain the stock solution (100 μM), which was further diluted to a series of concentrations (50, 25, 12.5, 6.25, 3.125, 1, 0.1, 1 × 10^−2, 1 × 10^−3, 1 × 10^−4, 1 × 10^−5 μM) with ultrapure water. Normally, 200 μL of the cell suspensions (5 × 10^4 cells/mL) was plated in 96-well culture plates at 37 °C. After 12 h, 20 μL of working solution was added to each well respectively and cultured at 37 °C for 24 h. Then, MTT was dissolved in saline to 5 mg/mL, and 20 μL of this solution was added to each well. After 4 h, the medium was removed, and then 100 μL of DMSO was added to dissolve any formazan crystals formed. Absorbance was then determined at 570 nm. The cell lines of colon cancer cells (HCT-116), non-small-cell lung carcinoma cells (NCI-H1650), gastric cancer cells (BGC-823), and liver hepatocellular carcinoma cells (HepG2) were tested for all isolated compounds. In addition, lung adenocarcinoma cells (A549) were tested on ustiloxins A (2), B (3), and G (1), and melanoma cells (A375) were tested on ustiloxin G (1). Ultrapure water and taxol were used as the negative and positive controls, respectively. All experiments were performed with three replicates.

[5] = test system: BGC-823; assay: Cytotoxicity, MTT assay, BGC-823; format: cell-based, human; settings: gastric cancer cells, 24 h treatment, absorbance 570 nm, three replicates
Protocol: as §4

[6] = test system: A549; assay: Cytotoxicity, MTT assay, A549; format: cell-based, human; settings: lung adenocarcinoma cells, 24 h treatment, absorbance 570 nm, three replicates
Protocol: as §4

[7] = test system: HCT116; assay: Cytotoxicity, MTT assay, HCT116; format: cell-based, human; settings: colon cancer cells, 24 h treatment, absorbance 570 nm, three replicates
Protocol: as §4

[8] = test system: NCI-H1650; assay: Cytotoxicity, MTT assay, NCI-H1650; format: cell-based, human; settings: non-small-cell lung carcinoma cells, 24 h treatment, absorbance 570 nm, three replicates
Protocol: as §4

| Compound | Inhibition Ratio (%) Seed Radicle Var. Lijiang ([1]; 10 µg/mL) | Inhibition Ratio (%) Seed Radicle Var. Zhonghua 11 ([1]; 10 µg/mL) | Inhibition Ratio (%) Seed Radicle Var. Lijiang ([1]; 20 µg/mL) | Inhibition Ratio (%) Seed Radicle Var. Zhonghua 11 ([1]; 20 µg/mL) | Inhibition Ratio (%) Seed Radicle Var. Lijiang ([1]; 50 µg/mL) | Inhibition Ratio (%) Seed Radicle Var. Zhonghua 11 ([1]; 50 µg/mL) | Inhibition Ratio (%) Seed Radicle Var. Lijiang ([1]; 100 µg/mL) | Inhibition Ratio (%) Seed Radicle Var. Zhonghua 11 ([1]; 100 µg/mL) | Inhibition Ratio (%) Seed Radicle Var. Lijiang ([1]; 200 µg/mL) | Inhibition Ratio (%) Seed Radicle Var. Zhonghua 11 ([1]; 200 µg/mL) | Inhibition Ratio (%) Seed Germ Var. Lijiang ([2]; 10 µg/mL) [%] | Inhibition Ratio (%) Seed Germ Var. Zhonghua 11 ([2]; 10 µg/mL) | Inhibition Ratio (%) Seed Germ Var. Lijiang ([2]; 20 µg/mL) | Inhibition Ratio (%) Seed Germ Var. Zhonghua 11 ([2]; 20 µg/mL) [%] | Inhibition Ratio (%) Seed Germ Var. Lijiang ([2]; 50 µg/mL) | Inhibition Ratio (%) Seed Germ Var. Zhonghua 11 ([2]; 50 µg/mL) [%] | Inhibition Ratio (%) Seed Germ Var. Lijiang ([2]; 100 µg/mL) | Inhibition Ratio (%) Seed Germ Var. Zhonghua 11 ([2]; 100 µg/mL) | Inhibition Ratio (%) Seed Germ Var. Lijiang ([2]; 200 µg/mL) | Inhibition Ratio (%) Seed Germ Var. Zhonghua 11 ([2]; 200 µg/mL) | also measured |
| --- | --- | --- | --- | --- | --- | --- | --- | --- | --- | --- | --- | --- | --- | --- | --- | --- | --- | --- | --- | --- | --- |
| O=C(O)CNCP(=O)(O)O [Glyphosate, N-(phosphonomethyl)glycine, reference compound] | 36.84 ± 2.91 g % | 28.24% | 62.91 ± 5.03 d % | 41.52 ± 5.20 e % | 85.08% | 68.88 ± 3.85 c % | 93.64 ± 2.66 a % | 81.05 ± 2.04 b % | 95.61 ± 2.74 a % | 87.72% | 20.99 | 21.16% | 37.82 ± 4.05 e % | 29.21 | 59.32 ± 5.06 c % | 35.36 | 68.21% | 57.60 ± 3.44 a % | 71.36 ± 2.68 a % | 58.93 ± 6.04 a % | – |
| CC[C@@]1(C)Oc2cc(c([S+]([O-])C[C@@H](O)C[C@H](N)C(=O)O)cc2O)[C@@H](O)[C@H](NC)C(=O)N[C@@H](C(C)C)C(=O)N[C@@H]1C(=O)NCC(=O)O (stereo partly drawn) [Ustiloxin A (2), ustiloxin A] | 17.83% | 12.27 ± 6.71 l % | 43.57 ± 0.61 f % | 56.16 ± 2.30 d % | 87.38 ± 0.79 b % | 89.14 ± 4.38 a % | 94.53 ± 0.36 a % | 93.72 ± 0.54 a % | 96.64 ± 0.36 a % | 95.29 ± 1.63 a % | 11.38 | 13.25% | 18.00% | 26.59 | 39.01 ± 6.84 e % | 42.04 | 50.59 ± 6.36 d % | 45.47% | 60.27% | 52.33% | abnormal swelling of the roots and germs of rice seedlings [3]: abnormal swelling; IC50 [4]: > 50 µM; IC50 [5]: 2.66 µM; IC50 [6]: 3.12 µM; IC50 [7]: > 50 µM; IC50 [8]: > 50 µM |
| CC[C@@]1(C)Oc2cc(c([S+]([O-])C[C@@H](O)C[C@H](N)C(=O)O)cc2O)[C@@H](O)[C@H](NC)C(=O)N[C@@H](C)C(=O)N[C@@H]1C(=O)NCC(=O)O (stereo partly drawn) [Ustiloxin B (3), ustiloxin B] | 4.16 ± 0.66 l % | 11.90 ± 6.45 l % | 14.27% | 20.22% | 53.24 ± 4.98 e % | 54.78 ± 3.09 d % | 86.62 ± 1.98 b % | 87.80% | 95.32 ± 1.32 a % | 93.04 ± 2.10 a % | 13.54 | 3.30% | 20.63% | 12.02 | 37.98 ± 3.83 e % | 35.60 | 49.65 ± 2.13 d % | 44.72% | 64.39% | 55.61 ± 2.75 a % | abnormal swelling of the roots and germs of rice seedlings [3]: abnormal swelling; IC50 [4]: 13 µM; IC50 [5]: 1.03 µM; IC50 [6]: > 50 µM; IC50 [7]: 7.2 µM; IC50 [8]: 21.6 µM |
| CC[C@@]1(C)Oc2cc(ccc2O)[C@@H](O)[C@H](NC)C(=O)N[C@@H](C(C)C)C(=O)N[C@@H]1C(=O)NCC(=O)O [Ustiloxin D (4), ustiloxin D] | 4.43 ± 5.47 l % | 13.55% | 5.42 ± 3.45 l % | 23.31% | 11.89% | 41.47 ± 4.88 e % | 79.92 ± 6.26 c % | 90.79 ± 0.94 a % | 94.92 ± 0.79 a % | 93.90 ± 2.11 a % | 10.73 | 10.98% | 11.67% | 12.28 | 11.87% | 16.19 | 19.92% | 25.48% | 38.76 ± 5.68 e % | 31.86% | IC50 [4]: > 50 µM; IC50 [5]: > 50 µM; IC50 [7]: > 50 µM; IC50 [8]: > 50 µM |
| CC[C@@]1(C)Oc2cc(ccc2O)[C@@H](O)[C@H](NC)C(=O)N[C@@H](C)C(=O)N[C@@H]1C(=O)NCC(=O)O [Ustiloxin F (5), ustiloxin F] | 5.07 ± 4.95 l % | 0.75% | 8.97% | 9.59 ± 3.80 l % | 22.17% | 16.51% | 26.72 ± 5.84 h % | 23.78% | 38.25% | 36.83% | 7.07 | 1.89 ± 4.86 p % | 7.90 ± 4.3 k1% | 9.36 | 9.14% | 14.97 | 15.16% | 17.77% | 24.57% | 18.71% | IC50 [4]: > 50 µM; IC50 [5]: > 50 µM; IC50 [7]: > 50 µM; IC50 [8]: > 50 µM |
